According to patent US12077503B2, “Substituted cyclic amides and their use as herbicides” (FMC CORPORATION, priority 2015, dated 2024):

Key:
Type in all cases: in vivo
[1] = test system: barnyardgrass (Echinochloa crus-galli); assay: Test A postemergence; settings: Echinochloa crus-galli, post-emergence, 240 h, Postemergence
In short: (§1)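 Greenhouse, ~10 d after spray; visual injury vs untreated controls, 0 = no effect, 100 = complete control. Preemergence: directed soil spray over planted seeds. Postemergence: plants 2–10 cm, 1–2 leaf stage. Loam/sand blend. Compound in non-phytotoxic solvent with surfactant.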

[2] = test system: giant foxtail (Setaria faberii); assay: Test A postemergence; settings: Setaria faberi, post-emergence, 240 h, Postemergence, read-out: Foxtail, Giant plant response rating (0 to 100 scale)
In short: as §1

[3] = test system: Galium (catchweed bedstraw, Galium aparine); assay: Test A postemergence; settings: Galium, post-emergence, 240 h, Postemergence, read-out: Galium plant response rating (0 to 100 scale)
In short: as §1

[4] = test system: corn (Zea mays); assay: Test A postemergence; settings: Zea mays, post-emergence, 240 h, Postemergence, read-out: Corn plant response rating (0 to 100 scale)
In short: as §1

[5] = test system: ragweed (common ragweed, Ambrosia elatior); assay: Test A postemergence; settings: Ambrosia artemisiifolia, post-emergence, 240 h, Postemergence, read-out: Ragweed plant response rating (0 to 100 scale)
In short: as §1

[6] = test system: ryegrass, Italian (Italian ryegrass, Lolium multiflorum); assay: Test A postemergence; settings: Lolium multiflorum, post-emergence, 240 h, Postemergence, read-out: Ryegrass, Italian plant response rating (0 to 100 scale)
In short: as §1

[7] = test system: Kochia (Kochia scoparia); assay: Test A postemergence; settings: Bassia scoparia, post-emergence, 240 h, Postemergence, read-out: Kochia plant response rating (0 to 100 scale)
In short: as §1

[8] = test system: blackgrass (Alopecurus myosuroides); assay: Test A postemergence; settings: Alopecurus myosuroides, post-emergence, 240 h, Postemergence, read-out: Blackgrass plant response rating (0 to 100 scale)
In short: as §1

[9] = test system: pigweed (Amaranthus retroflexus); assay: Test A postemergence; settings: Amaranthus retroflexus, post-emergence, 240 h, Postemergence, read-out: Pigweed plant response rating (0 to 100 scale)
In short: as §1

[10] = test system: wheat (Triticum aestivum); assay: Test A postemergence; settings: Triticum aestivum, post-emergence, 240 h, Postemergence, read-out: Wheat plant response rating (0 to 100 scale)
In short: as §1

[11] = test system: barnyardgrass (Echinochloa crus-galli); assay: Test B flooded paddy test; settings: Echinochloa crus-galli, 360 h, Flood, 250 g ai/ha; visually evaluated after 13 to 15 d; read-out: Plant response rating, Barnyardgrass (0 to 100 scale where 0 is no effect and 100 is complete control)
In short: (§2)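 2-leaf plants; pots flooded 3 cm over soil; cpd added to paddy water; depth held; greenhouse 13–15 d; visual rating vs controls, 0 = no effect, 100 = complete control.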

[12] = test system: sedge, umbrella (small-flower umbrella sedge, Cyperus difformis); assay: Test B flooded paddy test; settings: Cyperus difformis, 360 h, Flood, 250 g ai/ha; visually evaluated after 13 to 15 d; read-out: Plant response rating, Sedge, Umbrella (0 to 100 scale where 0 is no effect and 100 is complete control)
In short: as §2

[13] = test system: rice (Oryra sativa); assay: Test B flooded paddy test; settings: Oryza sativa, 360 h, Flood, 250 g ai/ha; visually evaluated after 13 to 15 d; read-out: Plant response rating, Rice (0 to 100 scale where 0 is no effect and 100 is complete control)
In short: as §2

[14] = test system: ducksalad (Heteranthera limosa); assay: Test B flooded paddy test; settings: Heteranthera limosa, 360 h, Flood, 250 g ai/ha; visually evaluated after 13 to 15 d; read-out: Plant response rating, Ducksalad (0 to 100 scale where 0 is no effect and 100 is complete control)
In short: as §2

[15] = test system: barnyardgrass (Echinochloa crus-galli); assay: Test A preemergence; settings: Echinochloa crus-galli, pre-emergence, 240 h, Preemergence
In short: as §1

[16] = test system: giant foxtail (Setaria faberii); assay: Test A preemergence; settings: Setaria faberi, pre-emergence, 240 h, Preemergence
In short: as §1

[17] = test system: ragweed (common ragweed, Ambrosia elatior); assay: Test A preemergence; settings: Ambrosia artemisiifolia, pre-emergence, 240 h, Preemergence
In short: as §1

[18] = test system: ryegrass, Italian (Italian ryegrass, Lolium multiflorum); assay: Test A preemergence; settings: Lolium multiflorum, pre-emergence, 240 h, Preemergence
In short: as §1

[19] = test system: Kochia (Kochia scoparia); assay: Test A preemergence; settings: Bassia scoparia, pre-emergence, 240 h, Preemergence
In short: as §1

[20] = test system: pigweed (Amaranthus retroflexus); assay: Test A preemergence; settings: Amaranthus retroflexus, pre-emergence, 240 h, Preemergence
[21] = 125 g ai/ha, visual rating about 10 d after treatment
[22] = 31 g ai/ha, 0 is no effect, 100 is complete control

Cc1cccc([C@H]2CN(C)C(=O)[C@@H]2C(=O)Nc2ccc(F)nc2F)c1 [Compound 1349]
90%: pest or weed control at 125 g/ha ([1]; 125 g ai/ha, visual rating about 10 d after treatment, read-out: Barnyardgrass plant response rating (0 to 100 scale, 0 no effect, 100 complete control)) | pest or weed control at 250 g/ha [11]
95%: pest or weed control at 250 g/ha [14]
100%: pest or weed control at 125 g/ha ([15]; 125 g ai/ha, 0 to 100 scale (0 no effect, 100 complete control), read-out: Plant response rating, Barnyardgrass) | pest or weed control at 31 g/ha ([16]; 31 g ai/ha, 0 to 100 scale where 0 is no effect and 100 is complete control, read-out: Foxtail, Giant plant response rating) | pest or weed control at 125 g/ha ([16]; 125 g ai/ha, 0 to 100 scale (0 no effect, 100 complete control), read-out: Plant response rating, Foxtail, Giant)
70%: pest or weed control at 31 g/ha ([1]; 31 g ai/ha, 0 is no effect, 100 is complete control, read-out: Barnyardgrass plant response rating (0 to 100 scale))
60%: pest or weed control at 31 g/ha [2, 22] | pest or weed control at 125 g/ha [3, 21]
80%: pest or weed control at 125 g/ha [2, 21]
30%: pest or weed control at 31 g/ha [3, 22] | pest or weed control at 125 g/ha [7, 21]
0%: plant injury at 125 g/ha [4, 21] | plant injury at 31 g/ha [4, 22] | pest or weed control at 125 g/ha [5, 21] | pest or weed control at 31 g/ha [5, 22] | pest or weed control at 31 g/ha [6, 22] | pest or weed control at 31 g/ha [7, 22] | pest or weed control at 31 g/ha [8, 22] | pest or weed control at 125 g/ha [9, 21] | pest or weed control at 31 g/ha [9, 22] | plant injury at 125 g/ha [10, 21] | plant injury at 31 g/ha [10, 22] | pest or weed control at 250 g/ha [12] | pest or weed control at 250 g/ha [13] | pest or weed control at 31 g/ha ([17]; 31 g ai/ha, 0 to 100 scale where 0 is no effect and 100 is complete control, read-out: Ragweed plant response rating) | pest or weed control at 125 g/ha ([17]; 125 g ai/ha, 0 to 100 scale (0 no effect, 100 complete control), read-out: Plant response rating, Ragweed) | pest or weed control at 31 g/ha ([18]; 31 g ai/ha, 0 to 100 scale where 0 is no effect and 100 is complete control, read-out: Ryegrass, Italian plant response rating) | pest or weed control at 125 g/ha ([18]; 125 g ai/ha, 0 to 100 scale (0 no effect, 100 complete control), read-out: Plant response rating, Ryegrass, Italian) | pest or weed control at 31 g/ha ([19]; 31 g ai/ha, 0 to 100 scale where 0 is no effect and 100 is complete control, read-out: Kochia plant response rating) | pest or weed control at 31 g/ha ([20]; 31 g ai/ha, 0 to 100 scale where 0 is no effect and 100 is complete control, read-out: Pigweed plant response rating) | pest or weed control at 125 g/ha ([20]; 125 g ai/ha, 0 to 100 scale (0 no effect, 100 complete control), read-out: Plant response rating, Pigweed)
20%: pest or weed control at 125 g/ha [6, 21] | pest or weed control at 125 g/ha [8, 21] | pest or weed control at 31 g/ha ([15]; 31 g ai/ha, 0 to 100 scale where 0 is no effect and 100 is complete control, read-out: Barnyardgrass plant response rating) | pest or weed control at 125 g/ha ([19]; 125 g ai/ha, 0 to 100 scale (0 no effect, 100 complete control), read-out: Plant response rating, Kochia)
